Values quoted from earlier work, collected in patent US6992047B2, “Method of microencapsulating an agricultural active having a high melting point and uses for such materials” (Monsanto Technology LLC, priority 2001, dated 2006).

Conditions: at 20° C.

For `C=CCNC(=O)c1c([Si](C)(C)C)sc(C)c1C` [silthiopham, 4,5-dimethyl-N-(2-propenyl)-2-(trimethylsilyl)-3-thiophenecarboxamide], the water solubility is given as 35 ppm.
